Measured values published in US8445677B2, “Substituted pyrimidyl guanidine derivatives having anticancer activity” (University of Southern California, priority 2008, dated 2013).

Experiments:
HCT116 p53+/+ = experiment: MTT cytotoxicity assay (Example 1); assay type: cell-based; conditions: for IC50: MTT, 72 h
From the text: (§1) Human breast cancer cells MDA-MB-435 were purchased from the American Type Culture Collection (Manassas, Va.). The HCT116 p53+/+ and HCT116 p53−/− cells were kindly provided by Dr. Bert Vogelstein (Johns Hopkins Medical Institutions, Baltimore, Md.). The human ovarian carcinoma cell line (HEY) which is naturally resistant to cisplatin, was kindly provided by Dr. Louis Dubeau, University of Southern California (USC) Norris Cancer Center, and NIH3T3 normal mouse fibroblast cells were kindly provided by Dr. Michael Press from USC. HEY and NIH3T3 cells were maintained as monolayer cultures in RPMI, HCT 116 cells in McCoy1s5A media and MDA-MB 435 in DMEM. Media were purchased from (Mediatech, Virginia) and supplemented with 10% fetal bovine serum (Gemini-Bioproducts, Woodland, Calif.), 2 mM L-glutamine and 5% Penicillin/streptomycin from Bio whittaker were purchased from VWR. Cells were incubated at 37° C. in a humidified atmosphere of 5% CO2. To remove the adherent cells from the flask for passaging and counting, cells were washed with PBS without calcium or magnesium, incubated with a small volume of 0.25% trypsin-EDTA solution (Sigma-Aldrich, St. Louis, Mo.) for 5-10 min, and washed with culture medium and centrifuged. All experiments were performed using cells at exponential growth stage. Cells were routinely checked for mycoplasma contamination using a PCR-based assay (Stratagene, Tex., USA).
(§2) Stock solutions (10 mM) of all compounds were prepared in DMSO and stored at −20° C. Further dilutions were made fresh in PBS or cell-culture media right before cell treatment.
(§3) Cytotoxicity was assessed by a 3-(4,s-dimethylthiazol-2-yl)-2,5-diphenyltetrazolium bromide (MTT) assay as previously described.^24 Briefly, cells were seeded in 96-well microtiter plates and allowed to attach overnight. Cells were subsequently treated with continuous exposure to the corresponding drug for 72 h. A MTT solution (at a final concentration of 0.5 mglml) was added to each well, and cells were incubated for 4 h at 37° C. After removal of the medium, DMSO was added and the absorbance was read at 570 nm. All assays were done in triplicate. The IC50 was then determined for each drug from a plot of log (drug concentration) versus percentage of cells killed.

HCT116 p53−/− = experiment: MTT cytotoxicity assay (Example 1); assay type: cell-based; conditions: for IC50: MTT, 72 h
From the text: as §1, §2, §3

HEY = experiment: MTT cytotoxicity assay (Example 1); assay type: cell-based, human; conditions: 72 h
From the text: as §1, §2, §3

MDA-MB-435 = experiment: MTT cytotoxicity assay (Example 1); assay type: cell-based, human; conditions: Homo sapiens, MDA-MB-435, 72 h
From the text: as §1, §2, §3

NIH3T3 = experiment: MTT cytotoxicity assay (Example 1); assay type: cell-based, mouse; conditions: Mus musculus, NIH3T3, 72 h
From the text: as §1, §2, §3

[1] = test system: panel of cancer cell lines; experiment: MTT cytotoxicity, panel of cancer cell lines (Example 1); assay type: cell-based; conditions: other selected cells, dose up to 10.0 μM
From the text: as §1, with “To remove the adherent cells from the flask for passaging and counting, cells were washed with PBS without calcium or magnesium, incubated with a small volume of 0.25% trypsin-EDTA solution (Sigma-Aldrich, St. Louis, Mo.) for 5-10 min, and washed with culture medium and centrifuged. All experiments were performed using cells at exponential growth stage. Cells were routinely checked for mycoplasma contamination using a PCR-based assay (Stratagene, Tex., USA).” left out
Cytotoxicity was assessed by a 3-(4,s-dimethylthiazol-2-yl)-2,5-diphenyltetrazolium bromide (MTT) assay as previously described.^24 Briefly, cells were seeded in 96-well microtiter plates and allowed to attach overnight. […] After removal of the medium, DMSO was added and the absorbance was read at 570 nm. […] The IC50 was then determined for each drug from a plot of log (drug concentration) versus percentage of cells killed.

Structure (SMILES): Cc1cccc(Nc2nc3nonc3nc2NN=Cc2ccc(-c3ccccc3Cl)o2)c1C [Compound 19]
- toxicity (HCT116 p53+/+): toxic
- IC50 (HCT116 p53+/+; Homo sapiens, HCT-116, 72 h): 3 µM
- IC50 (HCT116 p53+/+): 2 µM
- toxicity (HCT116 p53−/−): toxic
- IC50 (HCT116 p53−/−; Homo sapiens, HCT-116, 72 h): 6 µM
- IC50 (HCT116 p53−/−): 4 µM
- IC50 (HEY): 5 µM
- IC50 (HEY; Homo sapiens): 3 µM
- IC50 (MDA-MB-435): > 10 µM
- IC50 (NIH3T3): > 10 µM
- toxicity [1]: not toxic
